Data on five compounds can be found in patent publication US10407467B2, “Polymyxin derivatives and their use in combination therapy together with different antibiotics” (priority 2013, dated 2019).

Common to all, as to format: cell-based
The subject of experiment [1] is Escherichia coli. The experiment is described as follows: MIC, compound in combination with a second agent (broth microdilution). The conditions noted are these: 1:1 (wt:wt) combination with Rifampicin; for MIC E. coli NCTC9001: strain NCTC9001. A digest of the protocol: (§1)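 Susceptibility was tested on up to four strains of each pathogen with the compound paired 1:1 by weight alongside another antibacterial. Values count both components together and use the lower duplicate if replicates agreed within 2-fold.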
A general note: Dilution methods test growth across graded concentrations, often in twofold steps.

For experiment [2], the system named is Klebsiella pneumoniae. The experiment is described as above. The conditions noted are these: 1:1 (wt:wt) combination with Rifampicin; for MIC K. pneumoniae NCTC 13438: strain NCTC 13438. The essentials:
as §1

The test system of experiment [3] is Escherichia coli. The experiment is described as follows: MIC, sole activity (no second agent). The conditions noted are these: in the absence of Rifampicin; for MIC E. coli ATCC25922: strain ATCC25922; for MIC E. coli NCTC9001: strain NCTC9001. A digest of the protocol:
(§2)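 First, isolated colonies grown 18-24 hours on Mueller-Hinton agar were suspended to 0.5 McFarland; next, up to four strains per pathogen were tested in duplicate in cation-adjusted MHB; finally, the lower concordant value or modal repeat value was reported against Polymyxin B.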

The subject of experiment [4] is Klebsiella pneumoniae. The experiment is described as follows: MIC, sole activity (no second agent). The conditions noted are these: in the absence of Rifampicin; for MIC K. pneumoniae ATCC 4352: strain ATCC 4352; for MIC K. pneumoniae ATCC-BAA2146: strain ATCC-BAA2146; for MIC K. pneumoniae CCUG-59348: strain CCUG-59348; for MIC K. pneumoniae NCTC-13438: strain NCTC-13438. A digest of the protocol: as §2

Experiment [5] has as its system Acinetobacter baumannii. Put plainly: MIC, sole activity (no second agent). To be noted: in the absence of Rifampicin; for MIC A. baumannii ATCCBAA-747: strain ATCCBAA-747; for MIC A. baumannii NCTC 13423: strain NCTC13423. The essentials:
as §2

In experiment [6] the test system is Pseudomonas aeruginosa. Put plainly: MIC, sole activity (no second agent). To be noted: in the absence of Rifampicin; for MIC P. aeruginosa ATCC 27853: strain ATCC27853; for MIC P. aeruginosa ATCCCRM-9027: strain ATCCCRM-9027. The essentials: as §2
In experiment [7] the test system is Pseudomonas aeruginosa. Put plainly: MIC, compound in combination with a second agent (broth microdilution). The conditions noted are these: 1:1 (wt:wt) combination with Rifampicin. A digest of the protocol: as §1
Where [8] appears, read: MIC = total drug concentration, strain ATCC-BAA-2146.
[9] abbreviates: MIC = total drug concentration, strain CCUG-59348.
[10] abbreviates: MIC is total drug concentration.

Bridge positions count the residues as written; N and C are the ends. Square brackets hold non-standard residues; d marks the D form. Peptide text beside a SMILES is read from it. * marks the point of attachment. ξ: configuration not given here. X17 = CN1CCN(c2ccc(C(=O)*)cc2)CC1; Thr(3ξ) = CC(O)[C@H](N)C(=O)O; X13 = O=C(CC[C@@H]1CCCN1)*; X9 = CC(C)[C@H](N)CCC(=O)*; Dab = NCC[C@H](N)C(=O)O; X14 = CC(C)(N)CCC(=O)*; βAla = NCCC(=O)O

As to `CC(C)C[C@@H]1NC(=O)[C@@H](Cc2ccccc2)NC(=O)[C@H](CCN)NC(=O)[C@@H](NC(=O)[C@H](CCN)NC(=O)[C@@H](NC(=O)CCN)C(C)O)CCNC(=O)[C@H](C(C)O)NC(=O)[C@H](CCN)NC(=O)[C@H](CCN)NC1=O` (some centres unmarked) [Example 3, 3-Aminopropanoyl polymyxin B nonapeptide] (H-[βAla][Thr(3ξ)][Dab][Dab][Dab][dF]L[Dab][Dab][Thr(3ξ)]; lactam 4-C), in experiment [1] (MIC = total drug concentration), the “MIC E. coli NCTC9001” value is 0.25 micrograms/mL. Also, in experiment [2] (setting [8]), the “MIC K. pneumoniae ATCC-BAA-2146” value is on record as 1 micrograms/mL. Also, the “MIC K. pneumoniae CCUG-59348” value in experiment [2] (setting [9]) is listed as 8 micrograms/mL. In addition, the “MIC K. pneumoniae NCTC 13438” value in experiment [2] (MIC = total drug concentration) was determined as 2 micrograms/mL. The “MIC E. coli ATCC25922” value in experiment [3] stood at 2 micrograms/mL. Besides, in experiment [4], the “MIC K. pneumoniae ATCC 4352” value came to 0.125 micrograms/mL, the “MIC K. pneumoniae ATCC-BAA2146” value was greater than 32 micrograms/mL, the “MIC K. pneumoniae CCUG-59348” value is listed as greater than 32 micrograms/mL and the “MIC K. pneumoniae NCTC-13438” value is reported as greater than 32 micrograms/mL. In experiment [5], the “MIC A. baumannii ATCCBAA-747” value was found to be 1 micrograms/mL and the “MIC A. baumannii NCTC 13423” value turned out to be 1 micrograms/mL. Further, in experiment [6], the “MIC P. aeruginosa ATCC 27853” value came out at 0.125 micrograms/mL and the “MIC P. aeruginosa ATCCCRM-9027” value was 0.25 micrograms/mL.
For `CC(C)C[C@@H]1NC(=O)[C@@H](Cc2ccccc2)NC(=O)[C@H](CCN)NC(=O)[C@@H](NC(=O)[C@H](CCN)NC(=O)[C@@H](NC(=O)CCC(C)(C)N)C(C)O)CCNC(=O)[C@H](C(C)O)NC(=O)[C@H](CCN)NC(=O)[C@H](CCN)NC1=O` (some centres unmarked) [Example 21, 4-Amino-4-methyl pentanoyl polymyxin B nonapeptide] (X14-[Thr(3ξ)][Dab][Dab][Dab][dF]L[Dab][Dab][Thr(3ξ)]; lactam 3-C), the “MIC E. coli NCTC9001” value in experiment [1] (MIC = total drug concentration) is on record as 0.25 micrograms/mL. The “MIC K. pneumoniae ATCC-BAA-2146” value in experiment [2] (setting [8]) worked out at 0.5 micrograms/mL. Further, in experiment [2] (setting [9]), the “MIC K. pneumoniae CCUG-59348” value was determined as 8 micrograms/mL. In addition, the “MIC K. pneumoniae NCTC 13438” value in experiment [2] (MIC = total drug concentration) turned out to be 0.5 micrograms/mL. In experiment [3], the “MIC E. coli ATCC25922” value is recorded as 4 micrograms/mL and the “MIC E. coli NCTC9001” value was greater than 32 micrograms/mL. Further, in experiment [4], the “MIC K. pneumoniae ATCC 4352” value stood at 0.25 micrograms/mL, the “MIC K. pneumoniae ATCC-BAA2146” value is recorded as greater than 32 micrograms/mL, the “MIC K. pneumoniae CCUG-59348” value was greater than 32 micrograms/mL and the “MIC K. pneumoniae NCTC-13438” value is greater than 32 micrograms/mL. Further, the “MIC P. aeruginosa ATCC 27853” value in experiment [6] is recorded as less than 0.06 micrograms/mL.
Regarding `CC(C)C[C@@H]1NC(=O)[C@@H](Cc2ccccc2)NC(=O)[C@H](CCN)NC(=O)[C@@H](NC(=O)[C@H](CCN)NC(=O)[C@@H](NC(=O)CC[C@@H](N)C(C)C)C(C)O)CCNC(=O)[C@H](C(C)O)NC(=O)[C@H](CCN)NC(=O)[C@H](CCN)NC1=O` (stereo partly drawn) [Example 22, 4(R)-Amino-5-methylhexanoyl polymyxin B nonapeptide] (X9-[Thr(3ξ)][Dab][Dab][Dab][dF]L[Dab][Dab][Thr(3ξ)]; lactam 3-C), the “MIC E. coli NCTC9001” value in experiment [1] (MIC = total drug concentration) is given as 0.125 micrograms/mL. For the same compound, the “MIC K. pneumoniae ATCC-BAA-2146” value in experiment [2] (setting [8]) is 0.25 micrograms/mL. Besides, the “MIC K. pneumoniae CCUG-59348” value in experiment [2] (setting [9]) is given as 4 micrograms/mL. The “MIC K. pneumoniae NCTC 13438” value in experiment [2] (MIC = total drug concentration) amounted to 0.5 micrograms/mL. Moreover, in experiment [3], the “MIC E. coli ATCC25922” value came to 8 micrograms/mL and the “MIC E. coli NCTC9001” value is recorded as greater than 32 micrograms/mL. Besides, in experiment [4], the “MIC K. pneumoniae ATCC 4352” value came out at 0.5 micrograms/mL, the “MIC K. pneumoniae ATCC-BAA2146” value is on record as greater than 32 micrograms/mL, the “MIC K. pneumoniae CCUG-59348” value is recorded as greater than 32 micrograms/mL and the “MIC K. pneumoniae NCTC-13438” value is greater than 32 micrograms/mL. Moreover, in experiment [5], the “MIC A. baumannii ATCCBAA-747” value stood at 1 micrograms/mL and the “MIC A. baumannii NCTC 13423” value was found to be 0.5 micrograms/mL. Moreover, in experiment [6], the “MIC P. aeruginosa ATCC 27853” value was found to be 0.125 micrograms/mL and the “MIC P. aeruginosa ATCCCRM-9027” value is listed as 0.5 micrograms/mL.
For `CC(C)C[C@@H]1NC(=O)[C@@H](Cc2ccccc2)NC(=O)[C@H](CCN)NC(=O)[C@@H](NC(=O)[C@H](CCN)NC(=O)[C@@H](NC(=O)CC[C@@H]2CCCN2)C(C)O)CCNC(=O)[C@H](C(C)O)NC(=O)[C@H](CCN)NC(=O)[C@H](CCN)NC1=O` (stereo partly drawn) [Example 23, 3-(S)-(1-pyrrolidin-2-yl)-propionyl polymyxin B nonapeptide] (X13-[Thr(3ξ)][Dab][Dab][Dab][dF]L[Dab][Dab][Thr(3ξ)]; lactam 3-C), in experiment [1] (MIC = total drug concentration), the “MIC E. coli NCTC9001” value is 0.25 micrograms/mL. In addition, in experiment [2] (setting [8]), the “MIC K. pneumoniae ATCC-BAA-2146” value was found to be 1 micrograms/mL. In addition, in experiment [2] (setting [9]), the “MIC K. pneumoniae CCUG-59348” value was found to be 8 micrograms/mL. Further, the “MIC K. pneumoniae NCTC 13438” value in experiment [2] (MIC = total drug concentration) is given as 1 micrograms/mL. In experiment [3], the “MIC E. coli ATCC25922” value is listed as 16 micrograms/mL and the “MIC E. coli NCTC9001” value is reported as greater than 32 micrograms/mL. In experiment [4], the “MIC K. pneumoniae ATCC 4352” value worked out at 1 micrograms/mL, the “MIC K. pneumoniae ATCC-BAA2146” value is greater than 32 micrograms/mL, the “MIC K. pneumoniae CCUG-59348” value is on record as greater than 32 micrograms/mL and the “MIC K. pneumoniae NCTC-13438” value was greater than 32 micrograms/mL. Further, the “MIC P. aeruginosa ATCC 27853” value in experiment [6] was determined as 0.125 micrograms/mL.
In the case of `CC(C)C[C@@H]1NC(=O)[C@@H](Cc2ccccc2)NC(=O)[C@H](CCN)NC(=O)[C@@H](NC(=O)[C@H](CCN)NC(=O)[C@@H](NC(=O)c2ccc(N3CCN(C)CC3)cc2)C(C)O)CCNC(=O)[C@H](C(C)O)NC(=O)[C@H](CCN)NC(=O)[C@H](CCN)NC1=O` (some centres unmarked) [Example 55, 4-(4-Methyl-piperazin-1-yl) benzoyl polymyxin B nonapeptide] (X17-[Thr(3ξ)][Dab][Dab][Dab][dF]L[Dab][Dab][Thr(3ξ)]; lactam 3-C), the “MIC E. coli ATCC25922” value came out at 0.125 micrograms/mL in experiment [1] (MIC = total drug concentration, strain ATCC25922) and 0.125 micrograms/mL in experiment [1] (setting [10]). Moreover, the “MIC K. pneumoniae ATCC-BAA-2146” value in experiment [2] (setting [8]) and in experiment [2] (setting [10]) was 1 micrograms/mL each time. The “MIC K. pneumoniae CCUG-59348” value in experiment [2] (setting [9]) and in experiment [2] (setting [10]) was 4 micrograms/mL throughout. Further, the “MIC P. aeruginosa ATCC 27853” value in experiment [7] (MIC = total drug concentration, strain ATCC 27853) worked out at 0.25 micrograms/mL; in experiment [7] (setting [10]), 0.25 micrograms/mL. The “MIC P. aeruginosa CCUG 59626” value worked out at 0.25 micrograms/mL in experiment [7] (MIC = total drug concentration, strain CCUG 59626) and 0.25 micrograms/mL in experiment [7] (setting [10]).
